# Source: patent US10590120B2, “Pesticidal compositions and methods” (Dow AgroSciences LLC, priority 2016, dated 2020)
# How the values were obtained:
# Assay type in all cases: in vivo
# [1] = test system: Cabbage Looper (Trichloplusia ni, TRIPNI) ("CL"); assay: Insecticidal test for cabbage looper, 128-well diet tray assay; conditions: Trichoplusia ni, 168 h; second instar larvae, 50 μg/cm^2 on artificial diet, 25° C., five to seven days, percent mortality averaged over eight wells
# Experimental: Insecticidal Test for Cabbage Looper (Trichloplusia ni, TRIPNI) (“CL”)
# (§1) Bioassays on cabbage looper (CL; Trichloplusia ni: Lepidoptera) are conducted using a 128-well diet tray assay. One to five second instar CL larvae are placed in each well (3 mL) of the diet tray that had been previously filled with 1 mL of artificial diet to which 50 μg/cm^2 of the test compound (dissolved in 50 μL of 90:10 acetone-water mixture) had been applied (to each of eight wells) and then allowed to dry. Trays are covered with a clear self-adhesive cover, vented to allow gas exchange, and held at 25° C., 14:10 light-dark for five to seven days. Percent mortality is recorded for the larvae in each well; activity in the eight wells is then averaged.
# [2] = test system: Beet Armyworm (Spodoptera exigua, LAPHEG) ("BAW"); assay: Insecticidal test for beet armyworm, 128-well diet tray assay; conditions: 168 h, second instar larvae, 50 μg/cm^2 on artificial diet, 25° C., five to seven days, percent mortality averaged over eight wells
# Experimental: Insecticidal Test for Beet Armyworm (Spodoptera exigua, LAPHEG) (“BAW”)
# as §1, with “beet armyworm (BAW; Spodoptera exigua:” for “cabbage looper (CL; Trichloplusia ni:”, “BAW” for “CL”
# [3] = test system: Yellow Fever Mosquito (Aedes aegypti, AEDSAE) ("YFM"); assay: Insecticidal test for yellow fever mosquito, 96-well plate larval assay; conditions: about 1 day-old larvae, 4000 ppm master solution diluted, room temperature, scored for mortality after 3 days
# Experimental: Insecticidal Test for Yellow Fever Mosquito (Aedes aegypti, AEDSAE) (“YFM”)
# Master plates containing 400 μg of a molecule dissolved in 100 μL of dimethyl sulfoxide (DMSO) (equivalent to a 4000 ppm solution) are used. A master plate of assembled molecules contains 15 μL per well. To this plate, 135 μL of a 90:10 water/acetone mixture is added to each well. A robot (Biomek® NXP Laboratory Automation Workstation) is programmed to dispense 15 μL aspirations from the master plate into an empty 96-well shallow plate (“daughter” plate). There are 6 reps (“daughter” plates) created per master. The created “daughter” plates are then immediately infested with YFM larvae.
# The day before plates are to be treated, mosquito eggs are placed in Millipore water containing liver powder to begin hatching (4 g. into 400 mL). After the “daughter” plates are created using the robot, they are infested with 220 μL of the liver powder/larval mosquito mixture (about 1 day-old larvae). After plates are infested with mosquito larvae, a non-evaporative lid is used to cover the plate to reduce drying. Plates are held at room temperature for 3 days prior to grading. After 3 days, each well is observed and scored based on mortality.
smiles,measurement,setting,value
"Cc1ccc(C(C)C)c(N2C(=O)CS/C2=N\C(=O)N/N=C/c2ccc(-c3ncn(-c4ccc(OC(F)(F)F)cc4)n3)cc2)c1 [Compound A1, N—((Z)-3-(2-isopropyl-5-methylphenyl)-4-oxothiazolidin-2-ylidene)-2-((E)-4-(1-(4-(trifluoromethoxy)phenyl)-1H-1,2,4-triazol-3-yl)benzylidene)hydrazine-1-carboxamide]",pest or weed control at 50 µg/cm2,[1],50 to 100%
same,pest or weed control at 50 µg/cm2,[2],50 to 100%
"CC(C)c1ccccc1N1C(=O)CS/C1=N\C(=O)N/N=C/c1ccc(-c2ncn(-c3ccc(OC(F)(F)F)cc3)n2)cc1 [Compound A2, N—((Z)-3-(2-Isopropylphenyl)-4-oxothiazolidin-2-ylidene)-2-((E)-4-(1-(4-(trifluoromethoxy)phenyl)-1H-1,2,4-triazol-3-yl)benzylidene)hydrazine-1-carboxamide]",pest or weed control at 50 µg/cm2,[1],50 to 100%
same,YFM % Control,[3],A (80-100)
same,pest or weed control at 50 µg/cm2,[2],50 to 100%
"CCc1cccc(C)c1N1C(=O)CS/C1=N\C(=O)N/N=C/c1ccc(-c2ncn(-c3ccc(OC(F)(F)F)cc3)n2)cc1 [Compound A3, N—((Z)-3-(2-Ethyl-6-methylphenyl)-4-oxothiazolidin-2-ylidene)-2-((E)-4-(1-(4-(trifluoromethoxy)phenyl)-1H-1,2,4-triazol-3-yl)benzylidene)hydrazine-1-carboxamide]",pest or weed control at 50 µg/cm2,[1],50 to 100%
same,pest or weed control at 50 µg/cm2,[2],50 to 100%
"Cc1ccc(Cl)c(N2C(=O)CS/C2=N\C(=O)N/N=C/c2ccc(-c3ncn(-c4ccc(OC(F)(F)F)cc4)n3)cc2)c1 [Compound A4, N—((Z)-3-(2-Chloro-5-methylphenyl)-4-oxothiazolidin-2-ylidene)-2-((E)-4-(1-(4-(trifluoromethoxy)phenyl)-1H-1,2,4-triazol-3-yl)benzylidene)hydrazine-1-carboxamide]",pest or weed control at 50 µg/cm2,[1],50 to 100%
same,YFM % Control,[3],A (80-100)
same,pest or weed control at 50 µg/cm2,[2],50 to 100%
"CCOc1ccc(C)cc1N1C(=O)CS/C1=N\C(=O)N/N=C/c1ccc(-c2ncn(-c3ccc(OC(F)(F)F)cc3)n2)cc1 [Compound A5, N—((Z)-3-(2-Ethoxy-5-methylphenyl)-4-oxothiazolidin-2-ylidene)-2-((E)-4-(1-(4-(trifluoromethoxy)phenyl)-1H-1,2,4-triazol-3-yl)benzylidene)hydrazine-1-carboxamide]",pest or weed control at 50 µg/cm2,[1],50 to 100%
same,pest or weed control at 50 µg/cm2,[2],50 to 100%
"Cc1ccc(OCC(F)(F)F)c(N2C(=O)CS/C2=N\C(=O)N/N=C/c2ccc(-c3ncn(-c4ccc(OC(F)(F)F)cc4)n3)cc2)c1 [Compound A6, N—((Z)-3-(5-Methyl-2-(2,2,2-trifluoroethoxy)phenyl)-4-oxothiazolidin-2-ylidene)-2-((E)-4-(1-(4-(trifluoromethoxy)phenyl)-1H-1,2,4-triazol-3-yl)benzylidene)hydrazine-1-carboxamide]",pest or weed control at 50 µg/cm2,[1],50 to 100%
same,pest or weed control at 50 µg/cm2,[2],50 to 100%
"COc1ccc(N2C(=O)CS/C2=N\C(=O)N/N=C/c2ccc(-c3ncn(-c4ccc(OC(F)(F)F)cc4)n3)cc2)c(C)c1 [Compound A7, N—((Z)-3-(4-Methoxy-2-methylphenyl)-4-oxothiazolidin-2-ylidene)-2-((E)-4-(1-(4-(trifluoromethoxy)phenyl)-1H-1,2,4-triazol-3-yl)benzylidene)hydrazine-1-carboxamide]",pest or weed control at 50 µg/cm2,[1],50 to 100%
same,YFM % Control,[3],A (80-100)
same,pest or weed control at 50 µg/cm2,[2],50 to 100%
"CCOc1ccccc1N1C(=O)CS/C1=N\C(=O)N/N=C/c1ccc(-c2ncn(-c3ccc(OC(F)(F)F)cc3)n2)cc1 [Compound A8, N—((Z)-3-(2-Ethoxyphenyl)-4-oxothiazolidin-2-ylidene)-2-((E)-4-(1-(4-(trifluoromethoxy)phenyl)-1H-1,2,4-triazol-3-yl)benzylidene)hydrazine-1-carboxamide]",pest or weed control at 50 µg/cm2,[1],50 to 100%
same,pest or weed control at 50 µg/cm2,[2],50 to 100%
"Cc1ccc(C(F)(F)F)c(N2C(=O)CS/C2=N\C(=O)N/N=C/c2ccc(-c3ncn(-c4ccc(OC(F)(F)F)cc4)n3)cc2)c1 [Compound A9, N—((Z)-3-(5-methyl-2-(trifluoromethyl)phenyl)-4-oxothiazolidin-2-ylidene)-2-((E)-4-(1-(4-(trifluoromethoxy)phenyl)-1H-1,2,4-triazol-3-yl)benzylidene)hydrazine-1-carboxamide]",pest or weed control at 50 µg/cm2,[1],50 to 100%
same,pest or weed control at 50 µg/cm2,[2],50 to 100%
